According to patent publication US5780025A, “Compositions and methods for the synthesis and assay of enkephalinase” (Genentech, Inc., priority 1993, dated 1998):

Molecular target: T1, purified rat kidney enkephalinase (Rattus norvegicus, UniProt P07861)
T1 construct: Rat kidney enkephalinase was purified to apparent homogeneity; from tissue; host or cells: rat kidney (male rats, membrane fraction, Triton X-100 solubilised)
T1 sequence (P07861 1-750): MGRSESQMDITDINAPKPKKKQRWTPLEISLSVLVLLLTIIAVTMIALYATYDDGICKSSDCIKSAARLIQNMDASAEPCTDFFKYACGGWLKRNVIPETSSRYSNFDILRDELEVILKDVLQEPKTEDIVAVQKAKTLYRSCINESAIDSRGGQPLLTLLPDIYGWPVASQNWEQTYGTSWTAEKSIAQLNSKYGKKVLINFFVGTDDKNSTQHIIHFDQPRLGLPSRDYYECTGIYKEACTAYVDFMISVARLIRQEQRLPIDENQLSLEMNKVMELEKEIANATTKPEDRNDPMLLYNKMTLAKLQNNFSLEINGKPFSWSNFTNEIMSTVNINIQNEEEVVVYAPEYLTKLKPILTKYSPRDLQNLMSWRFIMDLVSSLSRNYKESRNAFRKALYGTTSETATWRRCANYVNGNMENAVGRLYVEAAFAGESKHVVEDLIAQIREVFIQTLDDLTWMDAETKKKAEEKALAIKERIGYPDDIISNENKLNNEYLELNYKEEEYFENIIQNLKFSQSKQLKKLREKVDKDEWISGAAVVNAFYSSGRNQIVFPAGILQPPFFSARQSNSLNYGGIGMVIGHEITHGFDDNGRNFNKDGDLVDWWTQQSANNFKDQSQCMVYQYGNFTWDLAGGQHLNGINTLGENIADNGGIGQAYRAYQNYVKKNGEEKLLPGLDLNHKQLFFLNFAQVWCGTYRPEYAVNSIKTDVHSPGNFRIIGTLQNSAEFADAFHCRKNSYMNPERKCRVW
Assay: HPLC analysis of the hydrolysis of peptides by enkephalinase, without and with thiorphan
Assay type: biochemical
Conditions: 100 nM thiorphan; peptides 1 mM, 1 hr at 37° C., 5 ng enzyme

Structure (SMILES): O=C(O)CNC(=O)C(CS)Cc1ccccc1 (stereo not shown) [Thiorphan]
- inhibition of the hydrolysis of all substrates: completely inhibited
